pIC50: −log10 of the molar value.
Tested on: ROCK
Assay: not given
Conditions: control rats; cited from earlier work

SMILES	blood pressure
C[C@@H](N)[C@H]1CC[C@H](C(=O)Nc2ccncc2)CC1 [Example Y-27632, Y-27632]	only a minor effect on blood pressure

Same assay, conditions: spontaneously hypertensive rat, renal hypertensive rat and deoxycortisone acetate salt hypertensive rat models; cited from earlier work

SMILES	blood pressure
C[C@@H](N)[C@H]1CC[C@H](C(=O)Nc2ccncc2)CC1 [Example Y-27632, Y-27632]	significantly decrease blood pressure

Biological target: ROCK2 (Homo sapiens, UniProt O75116)
Sequence (O75116 whole entry, species assumed): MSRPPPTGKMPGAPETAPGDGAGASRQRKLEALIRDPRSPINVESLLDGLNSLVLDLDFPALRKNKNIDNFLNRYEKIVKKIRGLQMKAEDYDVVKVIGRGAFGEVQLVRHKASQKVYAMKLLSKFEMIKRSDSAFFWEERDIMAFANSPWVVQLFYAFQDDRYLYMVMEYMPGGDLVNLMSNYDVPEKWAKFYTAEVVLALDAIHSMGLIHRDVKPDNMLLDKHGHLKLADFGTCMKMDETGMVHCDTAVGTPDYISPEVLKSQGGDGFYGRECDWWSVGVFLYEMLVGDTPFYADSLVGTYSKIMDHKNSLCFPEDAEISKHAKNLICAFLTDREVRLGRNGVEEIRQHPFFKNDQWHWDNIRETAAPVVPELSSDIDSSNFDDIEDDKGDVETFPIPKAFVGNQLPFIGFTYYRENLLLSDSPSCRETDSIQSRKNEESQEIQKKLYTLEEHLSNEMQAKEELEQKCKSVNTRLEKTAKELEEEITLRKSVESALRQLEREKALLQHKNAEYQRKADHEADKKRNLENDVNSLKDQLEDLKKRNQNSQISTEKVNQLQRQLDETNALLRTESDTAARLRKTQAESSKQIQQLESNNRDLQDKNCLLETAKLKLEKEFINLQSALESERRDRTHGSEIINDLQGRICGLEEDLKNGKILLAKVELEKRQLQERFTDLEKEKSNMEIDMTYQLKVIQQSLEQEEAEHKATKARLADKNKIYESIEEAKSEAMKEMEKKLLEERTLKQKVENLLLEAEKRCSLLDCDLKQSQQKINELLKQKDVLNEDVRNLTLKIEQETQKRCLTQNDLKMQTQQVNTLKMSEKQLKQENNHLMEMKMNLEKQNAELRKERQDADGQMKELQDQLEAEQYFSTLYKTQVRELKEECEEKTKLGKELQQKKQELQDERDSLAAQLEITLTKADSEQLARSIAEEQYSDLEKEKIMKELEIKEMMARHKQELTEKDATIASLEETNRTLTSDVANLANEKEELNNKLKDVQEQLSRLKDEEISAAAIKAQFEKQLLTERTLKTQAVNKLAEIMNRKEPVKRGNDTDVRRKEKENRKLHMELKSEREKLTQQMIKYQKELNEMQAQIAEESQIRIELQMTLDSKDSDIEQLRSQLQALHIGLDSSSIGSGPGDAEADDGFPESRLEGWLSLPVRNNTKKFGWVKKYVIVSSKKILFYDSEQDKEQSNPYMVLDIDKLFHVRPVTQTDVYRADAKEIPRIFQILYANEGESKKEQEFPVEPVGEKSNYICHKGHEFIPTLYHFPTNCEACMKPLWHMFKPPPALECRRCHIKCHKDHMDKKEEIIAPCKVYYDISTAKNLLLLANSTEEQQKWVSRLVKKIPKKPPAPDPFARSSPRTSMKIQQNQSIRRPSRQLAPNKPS
Assay: ROCK2 assay (Caliper LABCHIP peptide phosphorylation)
Format: biochemical
Conditions: 5 μM ATP, 1.5 μM peptide substrate
Experimental: The effectiveness of compounds of the present invention as ROCK inhibitors can be determined in a 30 μL assay containing 20 mM HEPES, pH 7.5, 20 mM MgCl2, 0.015% Brij-35, 4 mM DTT, 5 μM ATP and 1.5 μM peptide substrate (FITC-AHA-AKRRRLSSLRA-OH) (SEQ ID NO.1). Compounds were dissolved in DMSO so that the final concentration of DMSO was <2%, and the reaction was initiated with Rho kinase variants. After incubation, the reaction was terminated by the addition of EDTA and the phosphorylated and non-phosphorylated peptides separated using a LABCHIP® 3000 Reader (Caliper Life Sciences). […] Compounds were tested in dose-response format, and the inhibition of kinase activity was calculated at each concentration of compound. The inhibition data were fit using a curve-fitting program to determine the IC50; i.e., the concentration of compound required to inhibit 50% of kinase activity.
Representative Examples were tested in the ROCK2 assay described above and found having ROCK2 inhibitory activity. The ranges of the ROCK2 IC50 values are as follows: ROCK2 IC50: ++++ (<3 nM) +++ (3-30 nM) ++ (30-300 nM) + (300-2000 nM)

pIC50	SMILES
> 8.52	COc1ccc2c(c1)CC1(CCN(c3ccc(-c4cn[nH]c4)cc3)C1=O)O2 (stereo not drawn) [Example 24, 1′-(4-(1H-Pyrazol-4-yl)phenyl)-5-methoxy-3H-spiro[benzofuran-2,3′-pyrrolidin]-2′-one]
7.52 to 8.52	Cc1cccc2c1CC1(CCN(c3ccc(-c4cn[nH]c4)cc3)C1=O)N2 (stereo not drawn) [Example 27, 1′-(4-(1H-Pyrazol-4-yl)phenyl)-4-methylspiro[indoline-2,3′-pyrrolidin]-2′-one]
6.52 to 7.52	O=C1N(c2ccc(-c3cn[nH]c3)cc2)CCC12Cc1ncccc1N2 (stereo not drawn) [Example 28, 1-(4-(1H-Pyrazol-4-yl)phenyl)-1′,3′-dihydrospiro[pyrrolidine-3,2′-pyrrolo[3,2-b]pyridin]-2-one]
7.52 to 8.52	COc1cc(N2CCC3(Cc4ccccc4C3)C2=O)ccc1-c1cn[nH]c1 [Example 35, 1′-(3-Methoxy-4-(1H-pyrazol-4-yl)phenyl)-1,3-dihydrospiro[indene-2,3′-pyrrolidin]-2′-one]
6.52 to 7.52	CC(C)(O)COc1ccc2c(c1)NC1(CCN(c3ccc(-c4cn[nH]c4)cc3)C1=O)C2 (stereo not drawn) [Example 36]
> 8.52	O=C1N(c2ccc(-c3cn[nH]c3)cc2)CCC12Cc1ccc(O)cc1N2 (stereo not drawn) [Example 37]
7.52 to 8.52	O=C1N(c2ccc(-c3cn[nH]c3)cn2)CCC12Cc1ccccc1N2 (stereo not drawn) [Example 41, 1′-(5-(1H-Pyrazol-4-yl)pyridin-2-yl)spiro[indoline-2,3′-pyrrolidin]-2′-one]
7.52 to 8.52	O=C1N(c2cnc(-c3cn[nH]c3)cn2)CCC12Cc1ccccc1N2 (stereo not drawn) [Example 44, 1′-(5-(1H-Pyrazol-4-yl)pyrazin-2-yl)spiro[indoline-2,3′-pyrrolidin]-2′-one]
7.52 to 8.52	O=C1N(c2ccc(-c3ccncc3)cc2)CCC12Cc1ccccc1N2 (stereo not drawn) [Example 45, 1′-(4-(Pyridin-4-yl)phenyl)spiro[indoline-2,3′-pyrrolidin]-2′-one]
7.52 to 8.52	O=C1N(c2ccc(-c3ccncc3)cc2)CCC12Cc1ccccc1O2 (stereo not drawn) [Example 46, 1′-(4-(Pyridin-4-yl)phenyl)-3H-spiro[benzofuran-2,3′-pyrrolidin]-2′-one]
> 8.52	O=C1N(c2ccc(-c3cn[nH]c3)cc2)CCC12CCc1ccccc1N2 (stereo not drawn) [Example 47, 1-(4-(1H-pyrazol-4-yl)phenyl)-3′,4′-dihydro-1 ^1H-spiro[pyrrolidine-3,2′-quinolin]-2-one]
6.52 to 7.52	O=C1N(c2ccc(-c3cn[nH]c3)cc2)CCC12Cc1ccccc1CN2 (stereo not drawn) [Example 48, 1′-(4-(1H-pyrazol-4-yl)phenyl)-1,4-dihydro-2H-spiro[isoquinoline-3,3′-pyrrolidin]-2′-one]
7.52 to 8.52	O=C1N(c2ccc(-c3ccnc4[nH]ccc34)cc2)CCC12Cc1ccccc1CN2 (stereo not drawn) [Example 49, 1′-(4-(1H-pyrrolo[2,3-b]pyridin-4-yl)phenyl)-1,4-dihydro-2H-spiro[isoquinoline-3,3′-pyrrolidin]-2′-one]
6.52 to 7.52	O=C1N(c2ccc(-c3cn[nH]c3)cc2)CCC12CCc1ccccc1O2 (stereo not drawn) [Example 50, 1′-(4-(1H-pyrazol-4-yl)phenyl)spiro[chromane-2,3′-pyrrolidin]-2′-one]
> 8.52	CC1(C)c2ccccc2NC12CCN(c1ccc(-c3cn[nH]c3)cc1)C2=O (stereo not drawn) [Example 51, 1′-(4-(1H-pyrazol-4-yl)phenyl)-3,3-dimethylspiro[indoline-2,3′-pyrrolidin]-2′-one]
> 8.52	O=C1N(c2ccc(-c3cn[nH]c3)cc2)CC(CO)C12Cc1ccccc1N2 (stereo not drawn) [Example 52, 1′-(4-(1H-pyrazol-4-yl)phenyl)-4′-(hydroxymethyl)spiro[indoline-2,3′-pyrrolidin]-2′-one]
> 8.52	NCC1CN(c2ccc(-c3cn[nH]c3)cc2)C(=O)C12Cc1ccccc1N2 (stereo not drawn) [Example 53, 1′-(4-(1H-pyrazol-4-yl)phenyl)-4′-(aminomethyl)spiro[indoline-2,3′-pyrrolidin]-2′-one]
> 8.52	O=C1N(c2ccc(-c3cn[nH]c3)cc2)CC(CO)[C@@]12Cc1ccccc1N2 (stereo partly drawn) [Example 54, (2S)-1′-(4-(1H-pyrazol-4-yl)phenyl)-4′-(hydroxymethyl)spiro[indoline-2,3′-pyrrolidin]-2′-one]
6.52 to 7.52	O=C1N(c2ccc(-c3cn[nH]c3)cc2)CC(CO)[C@]12Cc1ccccc1N2 (stereo partly drawn) [Example 55, (2R)-1′-(4-(1H-pyrazol-4-yl)phenyl)-4′-(hydroxymethyl)spiro[indoline-2,3′-pyrrolidin]-2′-one]
> 8.52	O=C1N(c2ccc(-c3cn[nH]c3)cc2)CC(CO)C12CCc1ccccc1N2 (stereo not drawn) [Example 56, 1-(4-(1H-pyrazol-4-yl)phenyl)-4-(hydroxymethyl)-3′,4′-dihydro-1′H-spiro[pyrrolidine-3,2′-quinolin]-2-one]

Tested on: ROCK
Assay: not given
Conditions: rats, balloon injury model; cited from earlier work

SMILES	neointimal formation
C[C@@H](N)[C@H]1CC[C@H](C(=O)Nc2ccncc2)CC1 [Example Y-27632, Y-27632]	inhibited neointimal formation

Tested on: ROCK
Assay: not given
Conditions: long term treatment; cited from earlier work

SMILES	coronary constrictive remodeling	coronary stenosis
O=S(=O)(c1cccc2cnccc12)N1CCCNCC1 [fasudil]	promote a regression of coronary constrictive remodeling	progressively reduce coronary stenosis

Tested on: ROCK
Assay: not given
Conditions: rat, in vivo; cited from earlier work

SMILES	infarct size and neurologic deficit
O=S(=O)(c1cccc2cnccc12)N1CCCNCC1 [fasudil]	reduce both the infarct size and neurologic deficit

Tested on: ROCK
Assay: not given
Conditions: rat, in vivo; cited from earlier work
Remark: another data set of the same source

SMILES	ventricular hypertrophy, fibrosis and function
C[C@@H](N)[C@H]1CC[C@H](C(=O)Nc2ccncc2)CC1 [Example Y-27632, Y-27632]	improve ventricular hypertrophy, fibrosis and function
